From patent EP1692296B1 (priority 2003, dated 2005)
Entries after “also recorded” stand apart in the source; their conditions may differ. Where two headings read alike, the source gives them in different places.

Tested on: protease
Format: biochemical, Aspergillus sp. MTCC 5102

Compound | % inhibition | Residual specific activity (%) | inhibition of the protease activity (in words) | % inhibition (200 µM) | Residual specific activity (%) (200 µM)
O=C(O)CN(CCN(CC(=O)O)CC(=O)O)CC(=O)O [EDTA, ethylenediamine tetraacetic acid] | 6% | 94% | not inhibited; also recorded: no inhibition of activity |  | 
[Cl][Hg][Cl] [HgCl2, mercuric chloride] |  |  | not inhibited | 14% | 86%
O=S(=O)(F)Cc1ccccc1 [PMSF, phenylmethylsulfonyl fluoride] | 100% | 0% | totally inhibited; also recorded: inhibition of the activity |  | 
